Drawing on PMC6192554, “In vitro toxicity and efficacy of verdinexor, an exportin 1 inhibitor, on opportunistic viruses affecting immunocompromised individuals” (PLoS ONE, 2018), this text covers EC50, CC50 and half life for one compound.

One data set deals with Human CMV strain AD169. Nature of the data set: HCMV yield reduction assay in HFF cells. In kind it is cell-based, human cytomegalovirus. Conditions: Human betaherpesvirus 5, AD169, HFF. How it is done:
(§1) Human CMV strain AD169 was obtained from ATCC and assayed in human foreskin fibroblast cells (HFF). HFF cells were prepared at the University of Alabama at Birmingham (UAB) tissue procurement facility with IRB approval as previously described. Yield reduction assays for HCMV were performed on monolayers of HFF cells prepared in 96-well plates and incubated at 37°C for 1d to allow the cells to reach confluency. Media was then aspirated from the wells were infected at a high multiplicity of infection (MOI). At 1h following infection, the inocula were removed and the monolayers rinsed with fresh media. Compounds were then diluted in assay media consisting of MEM with Earl’s salts supplemented with 2% FBS, L-glutamine, penicillin, and gentamycin. Solutions ranging from 0.0032–10μM in primary assay and 0.032–100μM in secondary assay were added to the wells and the plates were incubated for various times, depending on the virus used and represents the length of a single replication cycle for the virus. A duplicate set of dilutions were also performed but remained uninfected to serve as a cytotoxicity control and received equal compound exposure. Supernatants from each of the infected wells were subsequently titered in a TCID50 assay to quantify the progeny virus.

The nature of data set [1]: Cytotoxicity in HFF cells, concurrent with HCMV assays. The class given is cell-based. Conditions: human, human foreskin fibroblast cells (HFF). As for the experimental part: Cytotoxicity assays: Concurrent assessment of cytotoxicity was also performed for each study in the same cell line and with the same compound exposure.
For HCMV cytotoxicity assay was determined via neutral red uptake assay and was conducted as reported previously in HFF cells. Optical densities were determined at 550nm.
as §1, with “Yield reduction” for “Human CMV strain AD169 was obtained from ATCC and assayed in human foreskin fibroblast cells (HFF). HFF cells were prepared at the University of Alabama at Birmingham (UAB) tissue procurement facility with IRB approval as previously described. Yield reduction”, “progeny virus. […]” for “progeny virus.”

The next data set deals with KSHV strain BCBL-1. Kind of data set: KSHV qPCR of viral DNA in PMA-induced BCBL-1 cells. The class given is cell-based, Kaposi's sarcoma-associated herpesvirus. Conditions: Human gammaherpesvirus 8, BCBL1, KSHV. How it is done:
KSHV strain BCBL-1 was obtained as latently infected BCBL-1 cells through the NIH AIDS Research and Reference Reagent Program. BCBL-1 cells were maintained in growth medium consisting of RPMI 1640 supplemented with 10% FBS, penicillin, gentamicin, and l-glutamine.
To quantify virus, compound was diluted from 0.008–100μM and added to BCBL-1 cells induced to undergo a lytic infection by the addition of 100ng/ml phorbol 12-myristate 13-acetate (PMA) (Promega). After 7d, total DNA was prepared, and viral DNA was quantified by qPCR (see S1 Table for primer/probe sequences). Plasmid pMP218 containing a DNA sequence corresponding to nucleotides 14120–14182 (AF148805.2) was used to provide absolute quantification of viral DNA and EC50 [11].

A short description of data set [2]: Cytotoxicity in BCBL-1 cells (CellTiter-Glo). In kind it is cell-based. Conditions: human. How it is done:
Cytotoxicity assays: Concurrent assessment of cytotoxicity was also performed for each study in the same cell line and with the same compound exposure. For KSHV, cell viability was assessed with the CellTiter-Glo Luminescent Cell Viability Assay (Promega) using manufacturer’s protocol. Luminescence was quantified on a luminometer. Standard methods were used to calculate the 50% cytotoxic level (CC50).

A short description of data set [3]: Cytotoxicity in HFF cells, concurrent with BKPyV assays. Conditions: human. In kind it is cell-based. How it is done:
Cytotoxicity assays: Concurrent assessment of cytotoxicity was also performed for each study in the same cell line and with the same compound exposure. For KSHV, cell viability was assessed with the CellTiter-Glo Luminescent Cell Viability Assay (Promega) using manufacturer’s protocol. Luminescence was quantified on a luminometer. Standard methods were used to calculate the 50% cytotoxic level (CC50). Cytotoxicity assay was performed in a manner analogous to KSHV above.

The subject of data set [4] is JC polyoma virus MAD-4 strain. Kind of data set: microbe, parasite or virus in culture. In kind it is cell-based. Conditions: Polyomavirus sp., COS-7, JCPyV, COS-7 cells. As for the experimental part:
John Cunningham polyomavirus (JCPyV) strains MAD-1 and MAD-4 and BK polyomavirus (BKPyV) Gardner strain were obtained from ATCC. COS-7 cells were obtained from ATCC and maintained according to ATCC-supplied protocols.
Cytotoxicity assay was performed in a manner analogous to KSHV above. Evaluation of compounds against JCPyV virus was done in COS7 cells with the plasmid pMP508 to provide a standard curve for quantification.
Viral DNA was quantified (S1 Table) together with the plasmid pMP508 to provide a standard curve for absolute quantification. Secondary assays against JCV were also performed in COS7 cells by methods similar to those for BK virus to identify if verdinexor inhibited adsorption or entry of the virus.

In the next data set the test system is diverse panel of viruses. Kind of data set: Broad antiviral screening, summary over all viruses. In kind it is cell-based. Conditions: across the panel of viruses; read-out: median EC50.
A further data set relates to Rev-GFP fusion. Also noted: method as in PMID 3025240. Conditions: read-out: EC50, forced nuclear retention of Rev-GFP fusion; cited from earlier work.
The conditions of data set [5]: mouse, in vivo, 10 mg/kg; cited from earlier work.

Method for diverse panel of viruses: Each assay was performed in triplicate in 2 independent assays. In some cases different assays were used for the secondary screen, as alternate experimental procedures are able to measure differential effects on the viral life cycle (ie. qPCR for genome replication, plaque reduction for replication, assembly and release, etc.).

Consider `O=C(C=Cn1cnc(-c2cc(C(F)(F)F)cc(C(F)(F)F)c2)n1)NNc1ccccn1` (stereo in doubt) [verdinexor, (E)-3-[3-[3,5-bis(trifluoromethyl)phenyl]-1,2,4-triazol-1-yl]-N'-pyridin-2-ylprop-2-enehydrazide], for which the EC50 with Human CMV strain AD169 (primary screen) was 190 nM; in the data set with Human CMV strain AD169 (secondary screen) it was 2500 nM; in the data set on KSHV strain BCBL-1 (primary screen) it was less than 800 nM; in the data set with KSHV strain BCBL-1 (secondary screen) it was 270 nM; in data set [4] (primary screen) it was 7450 nM; in [4] (secondary screen), 3140 nM. The EC50 was 2000 nM with diverse panel of viruses and 160 nM in the data set on Rev-GFP fusion. The CC50 in data set [1] (HCMV primary screen) turned out to be 1760 nM; in [1] (HCMV secondary screen), 73300 nM; in data set [2] (KSHV primary screen), 2760 nM; in [2] (KSHV secondary screen), 1400 nM; in data set [3] (BKPyV primary screen), 10000 nM; in data set [3] (BKPyV secondary screen) it was 9380 nM. The half life in [5] is 6 h.
